This note sets out measurements from patent US20260347364A1, “PYRAZOLO[4,3-F]QUINAZOLINE DERIVATIVES AS MODULATORS OF G12D MUTANT KRAS USEFUL FOR THE TREATMENT OF CANCER” (JAZZ PHARMACEUTICALS IRELAND LTD., priority 2023, published 2026).

Data set [1] concerns the target T1, KRAS G12A (Homo sapiens, UniProt P01116, G12A).
T1 construct: 4 nM KRAS; aa1-188 containing the G12V, G12C, G12A or G12S amino acid substitution
Kind of data set: HTRF nucleotide exchange assay, KRAS G12A. It is filed as biochemical. To be noted: HTRF nucleotide exchange assay (NEA), class symbols. On the procedure: (§1) HTRF Nucleotide Exchange Assay Method
(§2) The capacity of compounds to bind KRAS G12D, other KRAS mutants and wildtype RAS isoforms was quantified using a HTRF nucleotide exchange assay. Recombinant human RAS protein (2 nM; aa1-188 KRAS WT, HRAS WT, NRAS WT, or KRAS containing the G12D, G13D or Q61H amino acid substitutions, or 4 nM KRAS; aa1-188 containing the G12V, G12C, G12A or G12S amino acid substitution, an N-terminal 6× His-tag and leader sequence), and 2 nM Europium-labeled anti-6× His antibody were mixed in assay buffer (10 mM HEPES pH 7.3, 150 mM NaCl, 5 mM MgCl2, 0.05% BSA, 0.0025% NP-40 and 100 mM KF) with various concentrations of compound in a 384-well plate and a volume of 5 μL. After a 60-minute incubation at room temperature, 5 μl of 200 nM EDA-GTP-DY647P1 (diluted in assay buffer) was added to the plate. Following 30-minute incubation at room temperature, time-resolved fluorescence was measured on a PerkinElmer Envision plate reader. DMSO (0.3%) and unlabeled GDP (1 μM) or equivalent tool compound were used to generate the Max and Min assay signals, respectively. Data was analysed using a four-parameter logistic model to calculate IC50 values, with at least two independent replicates were performed for each compound. […]

For data set [2], the target named is T2, KRAS WT (Homo sapiens, UniProt P01116).
T2 construct: aa1-188 KRAS WT
Put plainly: HTRF nucleotide exchange assay, KRAS WT. In kind it is biochemical. To be noted: HTRF nucleotide exchange assay (NEA), class symbols.

The target in data set [3] is T3, KRAS G12S (Homo sapiens, UniProt P01116, G12S).
T3 construct: 4 nM KRAS; aa1-188 containing the G12V, G12C, G12A or G12S amino acid substitution
Kind of data set: HTRF nucleotide exchange assay, KRAS G12S. It is filed as biochemical. The note with it: HTRF nucleotide exchange assay (NEA), class symbols. The protocol:
as §1, §2
Background: Time-resolved FRET reads energy transfer from a long-lived donor to a nearby acceptor.

Data set [4] addresses T4, KRAS G12V (Homo sapiens, UniProt P01116, G12V).
T4 construct: 4 nM KRAS; aa1-188 containing the G12V, G12C, G12A or G12S amino acid substitution
Put plainly: HTRF nucleotide exchange assay, KRAS G12V. It is filed as biochemical. The note with it: HTRF nucleotide exchange assay (NEA), class symbols. On the procedure:
as §1
The capacity of compounds to bind KRAS G12D, other KRAS mutants and wildtype RAS isoforms was quantified using a HTRF nucleotide exchange assay. Recombinant human RAS protein (2 nM; aa1-188 KRAS WT, HRAS WT, NRAS WT, or KRAS containing the G12D, G13D or Q61H amino acid substitutions, or 4 nM KRAS; aa1-188 containing the G12V, G12C, G12A or G12S amino acid substitution, an N-terminal 6× His-tag and leader sequence), and 2 nM Europium-labeled anti-6× His antibody were mixed in assay buffer (10 mM HEPES pH 7.3, 150 mM NaCl, 5 mM MgCl2, 0.05% BSA, 0.0025% NP-40 and 100 mM KF) with various concentrations of compound in a 384-well plate and a volume of 5 μL. After a 60-minute incubation at room temperature, 5 μl of 200 nM EDA-GTP-DY647P1 (diluted in assay buffer) was added to the plate. Following 30-minute incubation at room temperature, time-resolved fluorescence was measured on a PerkinElmer Envision plate reader. DMSO (0.3%) and unlabeled GDP (1 μM) or equivalent tool compound were used to generate the Max and Min assay signals, respectively. Data was analysed using a four-parameter logistic model to calculate IC50 values, with at least two independent replicates were performed for each compound. The results are presented as IC50s in Table 29 where “A” corresponds to an IC50 ≤10 nM, “B” to an IC50 >10 nM up to 100 nM, “C” is >100 nM up to 10 μM, “D” represents <49% inhibition at 10 μM and ND=not determined: […]

The target of data set [5] is T5, KRAS G12D (Homo sapiens, UniProt P01116, G12D).
T5 construct: aa1-188 KRAS WT, HRAS WT, NRAS WT, or KRAS containing the G12D
Put plainly: HTRF nucleotide exchange assay, KRAS G12D. It is filed as biochemical. To be noted: HTRF nucleotide exchange assay (NEA), class symbols.

The nature of data set [6]: Metabolic stability in human liver hepatocytes (substrate depletion, intrinsic clearance). It is filed as in vitro ADME. The note with it: 37° C., Williams E Media, LC-MS/MS depletion. An excerpt:
Determining the in vitro metabolic stability of a new chemical entity (NCE) is a very useful tool within drug discovery. A metabolic stability study will determine the in vitro intrinsic clearance (CLint) of a compound. The CLint value represents a measure of enzyme activity toward an NCE and is independent of other physiological factors such as blood flow. Determination of CLint within drug discovery helps to identify metabolic liabilities within a compound series, and ultimately assist in the identification of compounds with improved metabolic stability. The CLint value determined in vitro can be used to predict in vivo clearance (using species specific scaling factors) in pre-clinical species and ultimately in human. The liver is the primary organ involved in drug metabolism, of which there are two pathways-Phase I and Phase II. Phase I metabolism is primarily oxidative with the majority of these oxidations catalysed by cytochrome P450 enzymes (CYPs) which are located in the smooth endoplasmic reticulum (ER) in the liver. Phase II metabolism is catalysed by various conjugative enzymes which are located mainly in the ER and the cytosol. The in vitro systems used to study drug metabolism are mainly subcellular fractions such as liver microsomes or whole cells (hepatocytes) isolated from the liver. Hepatocytes, being whole cells, contain both Phase I and Phase II metabolizing enzymes and produce their own cofactors. This assay determines the metabolic stability of test compounds in human liver hepatocytes using the substrate depletion approach. The lower limit of the assay is a T1/2 >462 min and a CLint […]. Therefore the upper limit of the assay is 277 μL/min/106 cells. Any CLint value higher than this should be given an out of range value. Hepatocytes were plated in Williams E Media with added L-glutamine, compounds were added as 1 mM DMSO solution and incubated at 37° C. Compound depletion was measured by LC-MS/MS at multiple time points following quenching with cold acetonitrile. CLint was calculated from the following equation:
CLint(μl/min/106cells)=(In(2)/T1/2)*1000/cell density(10^6cells/mL)

T5 sequence (P01116 1-188 isoform P01116-2 G12D): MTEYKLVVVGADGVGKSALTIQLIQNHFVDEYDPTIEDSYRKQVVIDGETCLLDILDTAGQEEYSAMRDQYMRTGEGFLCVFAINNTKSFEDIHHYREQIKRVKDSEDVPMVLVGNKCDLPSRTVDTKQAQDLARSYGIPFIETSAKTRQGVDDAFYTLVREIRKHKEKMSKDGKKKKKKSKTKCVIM
T4 sequence (P01116 1-188 isoform P01116-2 G12V): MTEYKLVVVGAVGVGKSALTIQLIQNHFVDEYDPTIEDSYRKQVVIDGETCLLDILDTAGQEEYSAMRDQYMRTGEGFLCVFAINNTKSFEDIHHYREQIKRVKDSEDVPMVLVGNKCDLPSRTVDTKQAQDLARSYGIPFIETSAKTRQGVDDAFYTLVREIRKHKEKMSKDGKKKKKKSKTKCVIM
T2 sequence (P01116 1-188 isoform P01116-2): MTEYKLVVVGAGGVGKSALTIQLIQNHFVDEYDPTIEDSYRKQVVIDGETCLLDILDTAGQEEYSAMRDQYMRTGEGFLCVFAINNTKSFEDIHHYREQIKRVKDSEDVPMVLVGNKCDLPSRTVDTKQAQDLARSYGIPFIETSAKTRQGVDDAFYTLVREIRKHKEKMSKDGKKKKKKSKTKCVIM
T1 sequence (P01116 1-188 isoform P01116-2 G12A): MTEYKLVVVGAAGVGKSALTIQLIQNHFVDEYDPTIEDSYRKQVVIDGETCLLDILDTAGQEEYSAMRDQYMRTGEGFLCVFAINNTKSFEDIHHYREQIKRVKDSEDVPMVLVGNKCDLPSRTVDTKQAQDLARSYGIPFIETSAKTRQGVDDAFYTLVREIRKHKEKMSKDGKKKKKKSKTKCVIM
T3 sequence (P01116 1-188 isoform P01116-2 G12S): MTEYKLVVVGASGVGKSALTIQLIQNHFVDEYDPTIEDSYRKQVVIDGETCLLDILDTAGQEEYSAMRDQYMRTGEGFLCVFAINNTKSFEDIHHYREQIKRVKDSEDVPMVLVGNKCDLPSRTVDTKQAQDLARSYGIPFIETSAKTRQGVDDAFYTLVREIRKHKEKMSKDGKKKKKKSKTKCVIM

Consider `CCc1c(F)ccc2cc(O)cc(-c3c(C)c4nc(OC[C@@]56CCCN5C[C@H](F)C6)nc(N5CCOCC(C)(O)C5)c4c4cn(C)nc34)c12` (mixture of isomers) [Example 105, 4-[4-(8-ethyl-7-fluoro-3-hydroxy-1-naphthyl)-2,5-dimethyl-7-[rac-(2R)-2-fluoro-1,2,3,5,6,7-hexahydropyrrolizin-8-yl]methoxy]pyrazolo[4,3-f]quinazolin-9-yl]-6-methyl-1,4-oxazepan-6-ol], for which the IC50 in data set [1] was not above 10 nM; in data set [2], not above 10 nM; in data set [3], 10 to 100 nM; in data set [4], not above 10 nM; in data set [5] it was not above 10 nM.

As for `CCc1c(F)ccc2cc(O)cc(-c3cc4nc(OC[C@@]56CCCN5C[C@H](F)C6)nc(N5CCCC(C)(O)C5)c4c4cn(C)nc34)c12` (mixture of isomers) [Example 7, 1-[4-(8-ethyl-7-fluoro-3-hydroxy-1-naphthyl)-2-methyl-7-[[rac-(2R,8S)-2-fluoro-1,2,3,5,6,7-hexahydropyrrolizin-8-yl]methoxy]pyrazolo[4,3-f]quinazolin-9-yl]-3-methyl-piperidin-3-ol], the IC50 in data set [2], in data set [4] and in data set [5] was not above 10 nM throughout.

`CCc1c(F)ccc2cc(O)cc(-c3cc4nc(OC[C@@]56CCCN5C[C@H](F)C6)nc(N5CCCOCC5)c4c4cn(C)nc34)c12` [Example 1, 5-ethyl-6-fluoro-4-[2-methyl-9-(1,4-oxazepan-4-yl)-7-[[(2R,8S)-2-fluoro-1,2,3,5,6,7-hexahydropyrrolizin-8-yl]methoxy]pyrazolo[4,3-f]quinazolin-4-yl]naphthalen-2-ol]: the IC50 in data set [1] was not above 10 nM; in data set [2], not above 10 nM; in data set [3], 10 to 100 nM; in data set [4], 10 to 100 nM; in data set [5], not above 10 nM. In addition, the intrinsic metabolic clearance (hepatocyte CLint) in data set [6] is 73.3 µL/min/1e6 cells.

In the case of `C#Cc1c(F)ccc2cc(O)cc(-c3cc4nc(OC[C@@]56CCCN5C[C@H](F)C6)nc(N5CCCOCC5)c4c4cn(C)nc34)c12` [Example 2, 5-ethynyl-6-fluoro-4-[2-methyl-9-(1,4-oxazepan-4-yl)-7-[[(2R,8S)-2-fluoro-1,2,3,5,6,7-hexahydropyrrolizin-8-yl]methoxy]pyrazolo[4,3-f]quinazolin-4-yl]naphthalen-2-ol], the IC50 in data set [2] and in data set [5] was not above 10 nM each time. This compound gave a hepatocyte CLint in data set [6] of 54.2 µL/min/1e6 cells.

Turning to `CCc1c(F)ccc2cc(O)cc(-c3cc4nc(OC[C@@]56CCCN5C[C@H](F)C6)nc(N5CCCCCC5)c4c4cn(C)nc34)c12` [Example 9, 4-[9-(azepan-1-yl)-2-methyl-7-[[(2R,8S)-2-fluoro-1,2,3,5,6,7-hexahydropyrrolizin-8-yl]methoxy]pyrazolo[4,3-f]quinazolin-4-yl]-5-ethyl-6-fluoro-naphthalen-2-ol], the IC50 in data set [2] and in data set [5] was 100 to 10000 nM each time. In data set [6], this compound yielded a hepatocyte CLint of 42.5 µL/min/1e6 cells.

Turning to `C#Cc1c(F)ccc2cc(O)cc(-c3cc4nc(OC[C@@]56CCCN5C[C@H](F)C6)nc(N5CCCCCC5)c4c4cn(C)nc34)c12` [Example 12, 4-[9-(azepan-1-yl)-2-methyl-7-[[(2R,8S)-2-fluoro-1,2,3,5,6,7-hexahydropyrrolizin-8-yl]methoxy]pyrazolo[4,3-f]quinazolin-4-yl]-5-ethynyl-6-fluoro-naphthalen-2-ol], the IC50 in data set [2] and in data set [5] was 10 to 100 nM in each case. In data set [6], the hepatocyte CLint was 47.8 µL/min/1e6 cells.

On to `CCc1c(F)ccc2cc(O)cc(-c3cc4nc(OC[C@@]56CCCN5C[C@H](F)C6)nc(N5CC6CCC5CN6)c4c4cn(C)nc34)c12` (stereo partly drawn) [Example 14, 4-[9-(2,5-diazabicyclo[2.2.2]octan-2-yl)-2-methyl-7-[[(2R,8S)-2-fluoro-1,2,3,5,6,7-hexahydropyrrolizin-8-yl]methoxy]pyrazolo[4,3-f]quinazolin-4-yl]-5-ethyl-6-fluoro-naphthalen-2-ol], for which the IC50 is 100 to 10000 nM in data set [2], 10 to 100 nM in data set [4] and not above 10 nM in data set [5].

For `CCc1c(F)ccc2cc(O)cc(-c3c(F)c4nc(OCC5(CN6CC(C)OC(C)C6)CC5)nc(N5CCOCC(C)(O)C5)c4c4cn(C)nc34)c12` (stereo not drawn) [Example 246, 4-[7-[[1-[(2,6-dimethylmorpholin-4-yl)methyl]cyclopropyl]methoxy]-4-(8-ethyl-7-fluoro-3-hydroxy-1-naphthyl)-5-fluoro-2-methyl-pyrazolo[4,3-f]quinazolin-9-yl]-6-methyl-1,4-oxazepan-6-ol], the IC50 in data set [2] and in data set [5] was not above 10 nM in each case.

For `C#Cc1c(F)ccc2cc(O)cc(-c3ncc4c(N5CCCCCC5)nc(OC[C@@]56CCCN5C[C@H](F)C6)nc4c3F)c12` [WO2022248885 Example 84, reference compound], the hepatocyte CLint in data set [6] was determined as 95.6 µL/min/1e6 cells.

Consider `C#Cc1c(F)ccc2cc(O)cc(-c3ccc4c(N5CCCOCC5)nc(OC[C@@]56CCCN5C[C@H](F)C6)nc4c3F)c12` [WO2022258974 Example 26, reference compound], for which the hepatocyte CLint in data set [6] amounted to 94.6 µL/min/1e6 cells.

One may read the IC50 as the concentration needed to halve the response being measured. A word on the hepatocyte CLint: it is the capacity of the preparation to metabolise the compound, expressed as a volume cleared per time. High values mean rapid turnover, low ones slow turnover.
